The subject of one test is B16 mouse melanoma. In words: MTT cytotoxicity assay, B16. Type of test: cell-based. Particulars: 72 hours, read-out: TCS50. The source says:
(§1) One of the parameters used as the basis for colorimetric assays is the metabolic activity of viable cells. For example, a microtiter assay which uses the tetrazolium salt MTT is now widely used to quantitate cell proliferation and cytotoxicity [Hajdúch M, Mihál V, Minarík J, Fáber E, Safárová M, Weigl E, Antálek P.: Cytotechnology, 1996, 19, 243–245]. For instance, this assay is used in drug screening programs and in chemosensitivity testing. Because tetrazolium salts are cleaved only by metabolically active cells, these assays exclusively detect viable cells. In the case of the MTT assay, yellow soluble tetrazolium salt is reduced to a coloured water-insoluble formazan salt. After it is solubilized, the formazan formed can easily and rapidly be quantified in a conventional ELISA plate reader at 570 nm (maximum absorbancy). The quantity of reduced formazan corresponds to the number of vital cells in the culture. […]
(§2) The cell suspensions that were prepared and diluted according to the particular cell type and the expected target cell density (2,500–30,000 cells per well based on cell growth characteristics) were added by pipette (80 μl) into 96/well microtiter plates. […] Usually, test compounds were evaluated at six 4-fold dilutions. […] The tumour cell survival (TCS) was calculated using the following equitation: TCS=(ODdrug exposed well/mean ODcontrol wells)×100%. […]
(Tetrazolium dyes change colour on reduction, which living cells bring about.)

In test [1] the test system is A549 human lung adenocarcinoma. In words: MTT cytotoxicity assay, A549. In kind it is cell-based. To be noted: 72 hours, read-out: TCS50.
Description: as §1, §2

Test [2] deals with Saos2 human, p53−/−, Rb−/−. In words: MTT cytotoxicity assay, Saos2. Type of test: cell-based. To be noted: 72 hours, read-out: TCS50.
Description: as §1, §2

Test [3] has as its system DU145 human prostate cancer, androgen independent, Rb−/−. Put plainly: MTT cytotoxicity assay, DU145. Type of test: cell-based. Particulars: 72 hours, read-out: TCS50.
Description: as §1, §2

Test [4] has as its system K562-ARA-C human promyelocytic leukemia, cytarabin resistant. Put plainly: MTT cytotoxicity assay, K562-ARA-C. In kind it is cell-based. To be noted: 72 hours, read-out: TCS50.
Description: as §1, §2

Test [5] relates to CEM-DNR 1/C2 human T-lymphoblastic leukemia, daunorubicin resistant. In words: MTT cytotoxicity assay, CEM-DNR 1/C2. Type of test: cell-based. Particulars: 72 hours, read-out: TCS50.
Description: as §1, §2

The subject of test [6] is CEM-DNR bulk human T-lymphoblastic leukemia, daunorubicin resistant. Put plainly: MTT cytotoxicity assay, CEM-DNR bulk. In kind it is cell-based. To be noted: 72 hours, read-out: TCS50.
Description: as §1, §2

In test [7] the test system is CEM-VCR 3/D5 human T-lymphoblastic leukemia, vincristin resistant. In words: MTT cytotoxicity assay, CEM-VCR 3/D5. To be noted: 72 hours, read-out: TCS50. Type of test: cell-based.
Description: as §1, §2

In the next test the test system is Rb protein. In words: Rb protein phosphorylation state, SDS-PAGE/Western blot in CEM cells. Type of test: cell-based, human. The procedure:
Since Rb protein contains multiple phosphorylation sites for CDKs, its phosphorylated form has molecular weight about 110 kDa, while the molecular weight of hypophosphorylated protein is only 105 kDa This small difference in molecular weight is enough to separate both forms by conventional SDS-PAGE electrophoresis.
CEM cells were cultured in Dulbeco's modified essential medium with 4.5 g dextrose/l, 10% of foetal calf serum, 2 mM glutamine, 100 U/ml penicillin and 100 μg/ml streptomycin with/without below indicated concentrations of betulkic acid (BA) or I.3. At selected time points, cells were harvested, washed in ice cold Hank's balanced salt solution and solubilized on ice using the SDS-PAGE sample buffer containing protease and phosphatase inhibitors (10 μg/ml of leupeptin, 10 μg/ml of aprotinin, 10 μg/ml of soybean trypsin inhibitor, 100 μmol of benzamide, 1 mM of sodium vanadate, 1 mM of NaF, 1 mM of phenylphosphate) and boiled immediately.
Total cellular proteins (100 μg/well) were separated on SDS-PAGE electrophoresis, blotted on polyvinyldifluoride membranes and total Rb protein, including proteolytic fragment(s) were detected using a pRb monoclonal antibody (Oncogene, Germany, Rb(AS5), Cat# OP66 Rev 2 Sep. 1996 EB, Clone LM95.1) and visualized by chemilumniuscence (ECL-Westeg Blotting System, Amersham). Details of the Western blot technique are described in Ausubel, F. M., Brent, R., Kingston, P E., Moore, D. D., Seidman, J. G., Smith, J. A., Struhl, K (Eds): Short Protocols-in Molecular Biology, 2nd edition, John Wiley & Sons, New York, Chichester, Brisbane, Toronto, Singapore, 1992, page 10–33–10–35.
(In general: In western blotting, separated proteins are transferred to a membrane and probed.)

Another test deals with CEM cells. Put plainly: Flow cytometry of total DNA content (cell cycle, apoptosis) in CEM cells. Type of test: cell-based, human. The procedure: Hypophosphorylation of Rb protein is accompanied with cell cycle block on the G1/S transition. To investigate whether incubation of tumour cells with betulinines will result in cell cycle block and/or apoptosis, a flow-cytometry study was performed with measurement of total DNA content in CEM cells treated with/without I.3. Taxol (paclitaxel) was used as a positive control, since this drug is known to result in the cumulation of cells in the G2 phase.
Briefly, CEM cells were cultured in Dulbeco's modified essential medium with 4.5 g dextrose/l, 10% of foetal calf serum, 2 mM glutamine, 100 U/ml penicillin and 100 μg/ml streptomycin with/without the indicated concentrations of paclitaxel or I.3 (FIG. 4A). At selected time points, cells were harvested, washed in ice cold Hank's balanced salt solution (HBSS) and fixed in 70% ethanol at −20° C. overnight. The next day, ethanol was removed by centrifugation, cells were washed twice in HBSS and a cellular pellet (10^6 cells) was reconstituted in staining solution (propidium iodide 60 μg/ml, DNA-se free RNA-se 175 U/ml in HBSS) for 15 minutes at 37° C. The DNA content of individual cells was analyzed on flow cytometer Excalibur (Becton and Dickinson) at excitation wavelength of 488 nm.

The results in this text go back to patent publication US7041701B2, “Triterpenoid derivatives” (Univerzita Palackeho V Olomouci, priority 2000, dated 2006).

Molecules are shown by their SMILES.

In the case of `CC(=O)OC[C@@]1(C(=O)O)CC[C@]2(C)[C@H](CC[C@@H]3[C@@]4(C)CC[C@H](OC(C)=O)C(C)(C)[C@@H]4CC[C@]32C)C1=O` [I.3, 3β,28-diacetoxy-18-oxo-19,20,21,29,30-pentanorlupan-22-oic acid], the IC50 in the test on B16 mouse melanoma worked out at 2100 nM; in [1] it was 1000 nM; in test [2], 1800 nM; in test [3] it was 800 nM; in test [4], 600 nM; in [5], 600 nM. For the same compound, the IC50 in test [6] was 1100 nM; in [7], 2900 nM. Also, the “time to appearance of hypophosphorylated form of Rb” value with Rb protein (7 μM) is 2 h; in the test on Rb protein (20 μM), 0.25 h. The “cleavage of Rb protein (42 kDa fragment, caspase activation)” value with Rb protein (Western blot) was “time and concentration dependent appearance of an immunoreactive fragment of Rb protein”. Moreover, the “dephosphorylation of Rb protein (shift 110 kDa to 105 kDa)” value with Rb protein (Western blot (FIG. 3)) is reported as “rapidly dephosphorylated”. In addition, the cell cycle distribution result in the test with CEM cells (propidium iodide flow cytometry (FIG. 4A)) is recorded as “induces cumulation of cells in G0/G1 phases”. In the test on CEM cells (propidium iodide flow cytometry (FIG. 4B)), the “induction of apoptosis (sub-G1 cells)” value is given as “rapid apoptosis”.
